According to paper PMC7891582 (Journal of Clinical Pharmacology, 2020):
“Also recorded” adds a separate entry of the source.

What was measured:
CYP3A [1] = assay: Midazolam; format: in vivo, human
CYP2C9 [2] = biological target: CYP2C9 (Homo sapiens, UniProt P11712); assay: Tolbutamide; format: in vivo
P‐gp [3] = biological target: P‐gp (Homo sapiens, UniProt P08183); assay: Digoxin; format: in vivo
CYP2C19 [4] = biological target: CYP2C19 (Homo sapiens, UniProt P33261); assay: Omeprazole
CYP3A [5] = details: ref unpublished in vitro studies, cited from earlier work
CYP2C9 [6] = details: read-out: IC50 for CYP2C9 inhibition; in vitro; ref unpublished in vitro studies; cited from earlier work
[7] = Safety in midazolam/tolbutamide study; format: in vivo, human
CYP3A [8] = details: human liver microsome, concentration-dependent; ref unpublished data; cited from earlier work
P‐gp [9] = details: cited from earlier work
CYP2C19 [10] = details: in vitro data; ref unpublished in vitro studies; cited from earlier work
[11] = cited from earlier work
[12] = Safety in omeprazole/digoxin study; format: in vivo, human
[13] = coadministered with pexidartinib
[14] = coadministered with pexidartinib 1800 mg
[15] = after multiple doses of pexidartinib
[16] = coadministration with single dose of pexidartinib
[17] = coadministered with single dose pexidartinib
[18] = omeprazole plus pexidartinib vs omeprazole only

CYP2C19 (Homo sapiens, UniProt P33261), sequence (P33261 whole entry): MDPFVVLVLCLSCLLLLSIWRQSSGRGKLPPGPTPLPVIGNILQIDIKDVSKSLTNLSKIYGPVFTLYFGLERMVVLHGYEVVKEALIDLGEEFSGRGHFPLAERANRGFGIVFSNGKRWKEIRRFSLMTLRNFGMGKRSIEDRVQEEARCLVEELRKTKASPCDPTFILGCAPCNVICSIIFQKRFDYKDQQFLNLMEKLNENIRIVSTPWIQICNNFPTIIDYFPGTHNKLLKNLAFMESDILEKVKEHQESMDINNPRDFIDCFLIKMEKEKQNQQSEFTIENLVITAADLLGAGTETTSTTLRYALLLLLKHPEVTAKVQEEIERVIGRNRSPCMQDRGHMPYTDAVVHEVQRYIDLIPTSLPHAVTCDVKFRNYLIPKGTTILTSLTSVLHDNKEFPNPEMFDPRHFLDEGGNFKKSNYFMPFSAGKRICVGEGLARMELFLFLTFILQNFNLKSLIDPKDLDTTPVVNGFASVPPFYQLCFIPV
P‐gp (Homo sapiens, UniProt P08183), sequence (P08183 whole entry): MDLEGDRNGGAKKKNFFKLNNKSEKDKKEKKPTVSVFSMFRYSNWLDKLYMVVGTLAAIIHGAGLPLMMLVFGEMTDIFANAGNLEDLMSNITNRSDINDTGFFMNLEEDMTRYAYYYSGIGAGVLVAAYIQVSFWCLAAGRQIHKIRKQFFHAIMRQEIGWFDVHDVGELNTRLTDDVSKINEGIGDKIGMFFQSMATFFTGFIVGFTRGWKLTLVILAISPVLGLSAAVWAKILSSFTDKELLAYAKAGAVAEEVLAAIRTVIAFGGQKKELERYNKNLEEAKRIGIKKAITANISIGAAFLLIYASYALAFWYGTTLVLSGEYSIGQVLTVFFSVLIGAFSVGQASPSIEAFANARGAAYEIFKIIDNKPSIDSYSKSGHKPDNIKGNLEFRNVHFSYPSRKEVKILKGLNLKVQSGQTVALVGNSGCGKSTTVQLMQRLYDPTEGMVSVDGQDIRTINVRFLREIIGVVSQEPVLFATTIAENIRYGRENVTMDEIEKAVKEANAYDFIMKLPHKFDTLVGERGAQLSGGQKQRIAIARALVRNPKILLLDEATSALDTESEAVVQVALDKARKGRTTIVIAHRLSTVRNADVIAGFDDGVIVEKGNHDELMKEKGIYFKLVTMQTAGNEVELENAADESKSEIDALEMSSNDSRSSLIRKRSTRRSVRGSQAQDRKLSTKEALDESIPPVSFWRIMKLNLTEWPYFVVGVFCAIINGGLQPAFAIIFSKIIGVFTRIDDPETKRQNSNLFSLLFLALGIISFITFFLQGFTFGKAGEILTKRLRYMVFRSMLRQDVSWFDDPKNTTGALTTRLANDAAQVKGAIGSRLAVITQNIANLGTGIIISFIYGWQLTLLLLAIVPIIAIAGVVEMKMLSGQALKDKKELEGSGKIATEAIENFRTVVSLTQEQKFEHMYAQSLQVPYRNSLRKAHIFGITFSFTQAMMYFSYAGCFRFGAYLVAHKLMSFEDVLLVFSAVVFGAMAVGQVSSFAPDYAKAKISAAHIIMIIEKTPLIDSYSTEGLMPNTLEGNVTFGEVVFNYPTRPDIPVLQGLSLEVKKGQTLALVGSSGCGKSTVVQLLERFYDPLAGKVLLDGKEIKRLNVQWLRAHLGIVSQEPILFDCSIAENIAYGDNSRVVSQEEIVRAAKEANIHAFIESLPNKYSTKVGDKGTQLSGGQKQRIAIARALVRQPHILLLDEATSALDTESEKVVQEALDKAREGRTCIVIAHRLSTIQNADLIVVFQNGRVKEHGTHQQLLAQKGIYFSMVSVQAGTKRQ
CYP2C9 (Homo sapiens, UniProt P11712), sequence (P11712 whole entry): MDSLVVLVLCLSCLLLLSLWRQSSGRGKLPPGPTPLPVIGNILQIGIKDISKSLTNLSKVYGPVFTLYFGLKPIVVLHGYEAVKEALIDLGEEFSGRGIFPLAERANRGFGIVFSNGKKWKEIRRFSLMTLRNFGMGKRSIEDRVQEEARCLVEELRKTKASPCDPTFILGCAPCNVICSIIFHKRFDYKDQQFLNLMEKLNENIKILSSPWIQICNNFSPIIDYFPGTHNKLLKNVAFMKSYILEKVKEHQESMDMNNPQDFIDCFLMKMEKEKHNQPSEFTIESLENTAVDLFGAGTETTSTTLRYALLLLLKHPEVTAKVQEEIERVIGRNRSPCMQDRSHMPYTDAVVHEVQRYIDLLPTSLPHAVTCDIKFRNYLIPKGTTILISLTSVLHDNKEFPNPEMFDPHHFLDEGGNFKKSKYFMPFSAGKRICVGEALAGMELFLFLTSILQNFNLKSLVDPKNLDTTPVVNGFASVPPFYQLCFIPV

OCc1ncc2n1-c1ccc(Cl)cc1C(c1ccccc1F)=NC2 [1‐hydroxy midazolam]
exposure to 1-hydroxy midazolam (CYP3A [1]; with or without concomitant pexidartinib): similar

CCCCNC(=O)NS(=O)(=O)c1ccc(CO)cc1 [4‐hydroxy tolbutamide]
exposure to 4-hydroxy tolbutamide (CYP2C9 [2]; during pexidartinib coadministration): decrease

C[C@H]1O[C@@H](O[C@H]2[C@@H](O)C[C@H](O[C@H]3[C@@H](O)C[C@H](O[C@H]4CC[C@@]5(C)[C@H](CC[C@@H]6[C@@H]5C[C@@H](O)[C@]5(C)[C@@H](C7=CC(=O)OC7)CC[C@]65O)C4)O[C@@H]3C)O[C@@H]2C)C[C@H](O)[C@@H]1O [digoxin]
effect on digoxin AUClast (P‐gp [3]; [13]): no significant effect; also recorded: nonsignificant effect | effect on digoxin time to reach Cmax or shape of plasma concentration-time curve (P‐gp [3]; [13]): no apparent effect | increase in digoxin AUClast (P‐gp [3]; [14]): 8% | increase in digoxin Cmax (P‐gp [3]; [14]): 32%

Cc1ncc2n1-c1ccc(Cl)cc1C(c1ccccc1F)=NC2 [midazolam]
decrease in midazolam AUClast (CYP3A [1]; [15]): 52% | decrease in midazolam Cmax (CYP3A [1]; [15]): 28% | decrease in midazolam AUClast (CYP3A [1]; [16]): 21% | decrease in midazolam Cmax (CYP3A [1]; [16]): 9%

COc1ccc2[nH]c([S+]([O-])Cc3ncc(C)c(OC)c3C)nc2c1 (stereo not drawn) [omeprazole]
decrease in Cmax for omeprazole (CYP2C19 [4]; [17]): 37% | omeprazole tmax (CYP2C19 [4]; [17]): 3 h | AUC(0-inf) (CYP2C19 [4]; human, plasma, oral, 40 mg): 1.74 µg·h/mL | AUC(0-t) (CYP2C19 [4]; human, plasma, oral, 40 mg): 1.73 µg·h/mL | tmax (CYP2C19 [4]; human, plasma, oral, 40 mg): 2.25 h | Cmax (CYP2C19 [4]; human, plasma, po, 40 mg): 0.908 µg/mL | AUCinf geometric LS mean ratio (CYP2C19 [4]; [18]): 83.2% | AUClast geometric LS mean ratio (CYP2C19 [4]; [18]): 77.4% | Cmax geometric LS mean ratio (CYP2C19 [4]; [18]): 62.8%

FC(F)(F)c1ccc(CNc2ccc(Cc3c[nH]c4ncc(Cl)cc34)cn2)cn1 [pexidartinib]
type of in vitro effect on CYP3A (CYP3A [5]; in vitro data): direct and time‐dependent inhibitor and an inducer | IC50 (CYP3A [5]; read-out: IC50 for CYP3A inhibition, in vitro): 16.7 µM | in vivo effect on P-gp transport (P‐gp [3]; digoxin probe): does not significantly affect | IC50 (CYP2C9 [6]): 3.7 µM | subjects with a grade 4 TEAE ([7]; 30 subjects with tumors): 4 subjects | subjects with grade 3 TEAEs ([7]; 30 subjects with tumors): 40% | subjects who discontinued treatment due to pexidartinib-related TEAEs ([7]; drug hypersensitivity, increased blood bilirubin): 7% | grade 4 TEAEs considered related to pexidartinib ([7]; increased bilirubin): 1 | tolerability ([7]; midazolam/tolbutamide study): generally well tolerated | grade 3 TEAEs considered related to pexidartinib ([7]; of 22 grade 3 TEAEs): 9 | effect on midazolam hydroxylation (CYP3A [8]): activated midazolam hydroxylation | time dependence of inhibitory effect on P-gp (P‐gp [9]; in vitro data, ref unpublished in vitro studies): not time dependent | IC50 (P‐gp [9]; read-out: in vitro IC50 for P-gp, preclinical data, ref data on file): 43.4 µM | in vivo effect on CYP2C19-mediated metabolism (CYP2C19 [4]; omeprazole probe): does not significantly affect | time dependence of inhibitory effect on CYP2C19 (CYP2C19 [10]): not time dependent | in vivo effect on CYP2C9 (FDA criteria) (CYP2C9 [2]; tolbutamide probe): weak inhibitor | delay of tmax with high-fat meal [11]: 1.5 h | effect of high-fat meal on exposure [11]: doubles | elimination half-life [11]: 26.6 h | accumulation ratio (exposure vs first dose) ([11]; multiple dosing, twice-daily regimen): ≈ 3.6 times | tmax ([11]; oral administration): ≈ 2.5 hours | TEAEs considered related to pexidartinib (all pruritus) ([12]; 20 healthy subjects): Three | intensity of TEAEs ([12]; 20 healthy subjects): mild (grade 1) | subjects who experienced a TEAE ([12]; 20 healthy subjects, single dose 1800 mg): 40% | tolerability ([12]; omeprazole/digoxin study): generally well tolerated | in vivo effect on CYP3A (FDA criteria) (CYP3A [1]; midazolam probe): moderate inducer
